test system: HIV-1NL4-3; assay: HIV-1 infectivity assay, single cycle infection, Luc reporter in TZM-bl cells; type: cell-based; conditions: HIV-1NL4-3 in TZM-bl cells, discussion of Table 2

Row | Compound | anti-HIV activity (in words)
1 | CCc1cc(=O)c2ccc(OCc3cccc(C(F)(F)F)c3)c(COC(=O)[C@@]34CCC(C)(C(=O)O3)C4(C)C)c2o1 [Compound 20, 4′-((−)-Camphanoyloxymethyl)-2-ethyl-7-(3-(trifluoromethyl)benzyloxy)-4H-chromen-4-one] | lost all activity
2 | CCc1cc(=O)c2ccc(OCc3cc(OC)c(OC)cc3[N+](=O)[O-])c(COC(=O)[C@@]34CCC(C)(C(=O)O3)C4(C)C)c2o1 [Compound 28, 4′-((−)-Camphanoyloxymethyl)-7-(4,5-dimethoxy-2-nitrobenzyloxy)-2-ethyl-4H-chromen-4-one] | lost all activity
3 | CCc1cc(=O)c2ccc(OC3CCOC3=O)c(COC(=O)[C@@]34CCC(C)(C(=O)O3)C4(C)C)c2o1 (stereo partly drawn) [Compound 16, 4′-((−)-Camphanoyloxymethyl)-2-ethyl-7-(2-oxo-tetrahydrofuran-3-yloxy)-4H-chromen-4-one] | lost all activity
4 | CCc1cc(=O)c2ccc(OCc3cc(OC)cc(OC)c3)c(COC(=O)C34CCC(C)(C(=O)O3)C4(C)C)c2o1 (stereo not drawn) [Compound 25, 4′-((−)-Camphanoyloxymethyl)-7-(3,5-dimethoxybenzyloxy)-2-ethyl-4H-chromen-4-one] | very weak anti-HIV activity

test system: not listed separately; assay: Chemical stability analysis in acidic conditions with HPLC monitoring; type: physicochemical; conditions: 1% HCl/MeOH/rt; peak area percentage by HPLC; preliminary

Row | Compound | Purity (area %) Reaction Time = 1 min [%]
5 | CCc1cc(=O)c2ccc(OC(C)C)c(COC(=O)C34CCC(C)(C(=O)O3)C4(C)C)c2o1 (stereo not drawn) [Compound 12, 4′-((−)-Camphanoyloxymethyl)-2-ethyl-7-isopropoxy-4H-chromen-4-one] | 100
6 | Cc1cc(=O)oc2c(COC(=O)[C@@]34CC[C@@](C)(C(=O)O3)C4(C)C)c(SC(C)C)ccc12 [Compound 32, 4′-((−)-Camphanoyloxymethyl)-7-(isopropylthio)-4-methyl-2H-chromen-2-one] | 100
7 | CCc1cc(=O)c2ccc3c(c2o1)[C@@H](OC(=O)C12CCC(C)(C(=O)O1)C2(C)C)[C@@H](OC(=O)C12CCC(C)(C(=O)O1)C2(C)C)C(C)(C)O3 (stereo partly drawn) [Compound 4, 2-ethyl DCP] | 100
8 | Cc1cc(=O)oc2c(COC(=O)[C@@]34CC[C@@](C)(C(=O)O3)C4(C)C)c(OC(C)C)ccc12 [Compound 7] | 100
9 | Cc1cc(=O)oc2c3c(ccc12)OC(C)(C)[C@H](OC(=O)[C@@]12CC[C@@](C)(C(=O)O1)C2(C)C)[C@@H]3OC(=O)[C@@]12CC[C@@](C)(C(=O)O1)C2(C)C [Compound 2, 4-methyl-DCK] | 100

— publication PMC3183312 (European journal of medicinal chemistry, 2011)
